According to patent publication US8487001B2, “Medium-chain length fatty acids, glycerides and analogues as neutrophil survival and activation factors” (ProMetic BioSciences Inc., priority 2001, dated 2013):
Values joined by “and” are separate entries in the source; they are usually repeats but may differ in a detail not shown here. Identical values can stand only once.

What was measured:
human neutrophils (PMN) = test: Doxorubicin-induced neutrophil apoptosis, comparison to GM-CSF (% PMN viability); format: cell-based; settings: for effect on doxorubicin-induced human neutrophil apoptosis: Table 2
Source text: Table 2 represents the effect of GM-CSF, MCT and tricaprylin on doxorubicin-induced human neutrophil apoptosis.

bone marrow cells = test: In vivo chemoprotection: bone marrow cell count; settings: for effect on bone marrow cell count compared to cyclophosphamide treated mice: protocol of example 16 (pre-treatment)
Method: (§1) To examine the immunoprotective effect of MCT or other compounds, mice were pre-treated orally at day-3, -2 and -1 or treated intravenously at day 0 with the test compound. Mice were sacrificed at day +5 by cardiac puncture and cervical dislocation. Then, cell suspensions were prepared from thymus, spleen and bone marrow as follow.
(§2) Tissues were crushed in PBS buffer and contaminating erythrocytes were lysed in ACK buffer (155 mM NH4Cl, 12 mM NaHCO3, 0.1 mM EDTA, pH 7.3) for 5 minutes. Cells were then collected by centrifugation and washed three times in PBS and resuspended in tissue culture medium. Cells were counted on a hemacytometer.
(§3) Chemoprotection studies were performed as described in example 16 except that mice were (post)-treated with MCT, sodium caprylate, sodium caprate or capric acid per o.s. on day 1, 2, 3 and 4.

spleen cells = test: In vivo chemoprotection: spleen cell count; settings: for effect on spleen cell count compared to cyclophosphamide treated mice: protocol of example 16 (pre-treatment)
Method: as §1, §2, §3

DA-3 breast carcinoma = test: Antitumor activity in DA-3 breast carcinoma model; format: in vivo, BALB/c mice; parameters: Tumor volume: unit not given here; settings: for effect on tumor volume compared to the control: FIG. 12, Table 20; for effect on tumor volume compared to the control / T/C (%): therapeutic CY 200 mg/kg, TX 30 mg/kg; for Treated/Control (%) / Tumor volume: Table 19, sub-therapeutic CY 100 mg/kg, TX 20 mg/kg i.v. day 9 and 16, MCT per os, day 23; for T/C (%): Table 20
Method: The syngeneic tumor DMBA3 (DA-3, breast carcinoma model) arose from a preneoplastic lesion treated with 7,12-dimethylbenzanthracene in female BALB/c mice. DA-3 cells were grown as monolayer cultures in plastic flasks in RPMI-1640 containing 0.1 mM nonessential amino acids, […], 2 mM L-glutamine and 100 μg/ml gentamycin sulfate. This was further supplemented with 50 μM 2-mercaptoethanol and 10% fetal bovine serum. The DA-3 tumors were serially passage in vivo by s.c. inoculation of 5×10^5 viable tumor cells to produce localized tumors in 6- to 8-week old BALB/c mice. The animals were then serially monitored by manual palpation for evidence of tumor. Serial tumor volume was obtained by bi-dimensional diameter measurements with calipers, using the formula […] (a×b^2) where “a” was the major tumor diameter and “b” the minor perpendicular diameter.
BABL/c mice were injected with tumor cells on day 0. […] Body weights and tumor volumes were monitored from day 4 until day 23. At day 23, all animals were sacrificed. The % T/C (treatment over control) was calculated as the ratio of tumor volumes at termination date in the treatment group divided by the respective volumes in the control group multiplied by 100. By the NCl criteria the product is considered effective if % T/C is ≦40%.

blood cell subsets = test: Blood immunophenotyping (flow cytometry of cell surface markers); format: in vivo, C57BL/6 mice
Method: (§4) Female, 6- to 8-week old, C57BL/6 mice were pre-treated on day -3, -2 and -1 per o.s. or intravenously at day 0 with different concentrations of MCT. Immunophenotyping was also performed on immunosuppressed animals. […] Mice were sacrificed on day 5 by cardiac puncture. Blood and spleens were collected and cell suspensions prepared and erythrocytes lysed in ACK buffer (155 mM NH4Cl, 12 mM NaHCO3, 0.1 mM EDTA, pH 7.3) for 5 minutes. The cells were washed three times in PBS, pH 7.4 and resuspended in tissue culture medium. The cells were then incubated for 45 minutes on ice with fluorescein isothiocyanate (FITC) or phycoerythrin (PE) conjugated cell surface marker according to the manufacturer's (Gibco/BRL, Cedarlane, Boehringer Mannheim) recommendation. The cells were then washed in PBS, fixed with 1% paraformaldehyde and analyzed with a Coulter XL flow cytometer. Analysis of the cell subsets was undertaken by determination of standard cell surface markers which were as follows: TCR (T-cell receptor), CD4 (T helper), CD8 (T cytotoxic/suppressor), CD11b (macrophage), NK (NK cells) and Ly5 (B-cells). Bone marrow cells were obtained as described in example 15. Cells were stained by a 45 minutes incubation of FITC or PE conjugated cell surface marker according to the manufacturer's recommendation. The cells were then washed in PBS, fixed with 1% paraformaldehyde and analyzed with a Coulter XL flow cytometer. Analysis of the cell subsets was undertaken by determination of standard cell surface markers which were as follows: CD34 (hematopoietic progenitor cells), CD41 (platelets, megakaryocytes), CD13 (myelomonocytic stem cells, myelocytes, promonocytes) and CD38 (lymphoid stem cells, pro-B, pre-B).

spleen cell subsets = test: Spleen immunophenotyping (flow cytometry of cell surface markers); format: in vivo, C57BL/6 mice; settings: for Spleen Immunophenotyping: effect compared to cyclophosphamide alone (words): CY (200 mg/kg) immunosuppressed mice
Method: as §4

bone marrow cell subsets = test: Bone marrow immunophenotyping (CD34, CD13, CD41, CD38); format: in vivo, C57BL/6 mice; settings: mouse, in vivo
Method: as §4
The effect of MCT, sodium caprylate, sodium caprate on bone marrow immunophenotyping was assessed by the protocol described in example 26.

thymus = test: In vivo: thymus weight, MCT versus GM-CSF; settings: normal mice; FIG. 8
Method: as §1
In vivo comparison on the induction of immune cell proliferation/regeneration or protection was undertaken following the protocol described in example 16. Comparative studies of MCT and GM-CSF were performed on normal and immunosuppressed animals.

[1] = Table 6, CY-treated mice, CY + test compound (CY line = CY alone), protocol of example 16
[2] = Table 5, CY-treated mice, CY + test compound (CY line = CY alone), protocol of example 16
[3] = Table 7, CY-treated mice, CY + test compound 6.25 μMole pre-treatment (CY line = CY alone)
[4] = Table 8, CY-immunosuppressed mice, CY + test compound 6.25 μM (CY line = CY alone)
[5] = Table 9, CY-immunosuppressed mice, CY + test compound 6.25 μMole (CY line = CY alone)
[6] = Table 10, CY-treated mice, post-treatment per o.s. on day 1, 2, 3 and 4 with test substance 12.5 μM (CY line = CY alone)
[7] = Table 16, CY-treated mice, CY + test compound (CY line = CY alone), protocol of example 16
[8] = immunosuppressed animals, comparison MCT versus GM-CSF
[9] = CY-treated mice, post-treatment per o.s. on day 1, 2, 3 and 4
[10] = Table 11, CY + capric acid 3.125 μMole post-treatment per o.s. day 1, 2, 3 and 4
[11] = Table 11, CY + capric acid 6.25 μMole post-treatment per o.s. day 1, 2, 3 and 4
[12] = Table 11, CY + capric acid 12.5 μMole post-treatment per o.s. day 1, 2, 3 and 4

CCCCCCCC(=O)OCC(COC(=O)CCCCCCC)OC(=O)CCCCCCC [tricaprylin]
effect on doxorubicin-induced human neutrophil apoptosis (human neutrophils (PMN)): rescues doxorubin-induced apoptosis and further enhances the viability of human neutrophils to a higher extent than that observed in the non-treated neutrophils | effect on bone marrow cell count compared to cyclophosphamide treated mice (bone marrow cells; CY-treated mice): efficacious in the proliferation or protection of bone marrow cell counts | Bone Marrow # Cells (×10^6) (bone marrow cells; [1]): 34 ± 7.8 ×10^6 | effect on spleen cell count compared to cyclophosphamide treated mice (spleen cells; CY-treated mice): No significant effect | Spleen # Cells (×10^6) (spleen cells; [1]): 37 ± 12.6 ×10^6

CC(=O)O[C@@]12CO[C@@H]1C[C@H](O)[C@@]1(C)C(=O)[C@H](O)C3=C(C)[C@@H](OC(=O)[C@H](O)[C@@H](NC(=O)OC(C)(C)C)c4ccccc4)C[C@@](O)([C@@H](OC(=O)c4ccccc4)[C@H]21)C3(C)C [TX, taxotere]
effect of cytotoxic drug on bone marrow cell count compared to the control (bone marrow cells; mouse, in vivo, iv): has no significant effect on bone marrow cell count | effect of cytotoxic drug on spleen cell count compared to the control (spleen cells; mouse, in vivo, iv): reduce significantly the spleen cell count compared to the control | effect on tumor volume compared to the control (DA-3 breast carcinoma): not significant compared to the control mice | Treated/Control (%) (DA-3 breast carcinoma): 64.5% | Tumor volume (DA-3 breast carcinoma): 37.9 ± 41.5 | T/C (%) (DA-3 breast carcinoma): 64.7%

O=P1(N(CCCl)CCCl)NCCCO1 (centres unmarked) [CY, cyclophosphamide, reference compound]
effect of cytotoxic drug on bone marrow cell count compared to the control (bone marrow cells; FIG. 6, cytotoxic drug i.v. at day 0): depressed the bone marrow cell count compared to the control | Bone Marrow # Cells (×10^6) (bone marrow cells; [2]): 22 ± 5.7 ×10^6 | Bone Marrow # Cells (×10^6) (bone marrow cells; [1]): 22 ± 5.8 ×10^6 | Bone Marrow # Cells (×10^6) (bone marrow cells; [3]): 32 ± 6.3 ×10^6 | Bone Marrow # Cells (×10^6) (bone marrow cells; [4]): 27 ± 2.8 ×10^6 | Bone Marrow # Cells (×10^6) (bone marrow cells; [5]): 25 ± 4.9 ×10^6 | Bone Marrow # Cells (×10^6) (bone marrow cells; [6]): 19 ± 4.99 ×10^6 | Bone Marrow # Cells (×10^6) (bone marrow cells; [7]): 28 ± 3.4 ×10^6 | Bone Marrow # Cells (×10^6) (bone marrow cells; Table 17, CY-treated mice, CY + test compound (CY line = CY alone), protocol of example 16): 26.2 ± 2.6 ×10^6 | Bone Marrow # Cells (×10^6) (bone marrow cells; Table 18, CY-treated mice, CY + test compound (CY line = CY alone), protocol of example 16): 27.5 ± 8.0 ×10^6 | effect of cytotoxic drug on spleen cell count compared to the control (spleen cells; FIG. 7, cytotoxic drug i.v. at day 0): reduce significantly the spleen cell count compared to the control | Spleen # Cells (×10^6) (spleen cells; [2]): 23 ± 4.0 ×10^6 | Spleen # Cells (×10^6) (spleen cells; [1]): 36 ± 13.6 ×10^6 | Spleen # Cells (×10^6) (spleen cells; [3]): 24 ± 6 ×10^6 | Spleen # Cells (×10^6) (spleen cells; [4]): 19 ± 6.5 ×10^6 | Spleen # Cells (×10^6) (spleen cells; [5]): 33 ± 13.2 ×10^6 | Spleen # Cells (×10^6) (spleen cells; [6]): 30 ± 9.5 ×10^6 | Spleen # Cells (×10^6) (spleen cells; [7]): 29 ± 9.2 ×10^6 | Blood Immunophenotyping: CD11+ cell subset (relative percentage) (blood cell subsets; mouse, in vivo): 26.41 ± 4.54 | Blood Immunophenotyping: LY5−TCR− cell subset (relative percentage) (blood cell subsets; mouse, in vivo): 36.82 ± 9.93 and 56.36 ± 7.26 and 40.91 ± 8.84 | Spleen Immunophenotyping: CD11+ cell subset (relative percentage) (spleen cell subsets; mouse, in vivo): 16.31 ± 4.85 | Spleen Immunophenotyping: NK+ cell subset (relative percentage) (spleen cell subsets; mouse, in vivo): 7.53 ± 2.52 | % Cells CD13+ (bone marrow) (bone marrow cell subsets): 3.2 ± 0.5% | % Cells CD34+ (bone marrow) (bone marrow cell subsets): 10 ± 1.0% | % Cells CD38+ (bone marrow) (bone marrow cell subsets): 39.6 ± 13.6% | % Cells CD41+ (bone marrow) (bone marrow cell subsets): 4.2 ± 0.6% | Bone marrow immunophenotyping (bone marrow cell subsets): induces a significant increase in all studied subsets | effect on tumor volume compared to the control (DA-3 breast carcinoma): significant reduction of the tumor volume | Treated/Control (%) (DA-3 breast carcinoma): 46.8% | Tumor volume (DA-3 breast carcinoma): 27.5 ± 15.9 | T/C (%) (DA-3 breast carcinoma): 18.8%

GM-CSF: granulocyte-macrophage colony stimulating factor, hematopoietic growth factor
% PMN Viability (human neutrophils (PMN); GM-CSF 10^-7 M + DOX (10^-5 M)): 16.75 ± 2.05% | % PMN Viability (human neutrophils (PMN); GM-CSF 10^-8 M + DOX (10^-5 M)): 6.99 ± 0.23% | effect on doxorubicin-induced human neutrophil apoptosis (human neutrophils (PMN)): able to rescue or protect human neutrophils against doxorubicin-induced apoptosis | activity on bone marrow cell count (bone marrow cells; [8]): has no significant activity on bone marrow and spleen cell counts | activity on spleen cell count (spleen cells; [8]): has no significant activity on bone marrow and spleen cell counts | effect on thymus weight (thymus): significant effect

CCCCCCCCCC(=O)OCC(N)COC(=O)CCCCCCCCC [didecanoyl serinol, 1,3-O,O-Didecanoyl serinol]
Bone Marrow # Cells (×10^6) (bone marrow cells; [7]): 30 ± 3.8 ×10^6 | Spleen # Cells (×10^6) (spleen cells; [7]): 36 ± 9.9 ×10^6 | melting point: 101 °C

CCCCCCCCCC(=O)O [capric acid]
effect on bone marrow cell count, post-treatment (bone marrow cells; [9]): weak increase in bone marrow cell count | effect on bone marrow cell count compared to cyclophosphamide treated mice (bone marrow cells; CY-treated mice): significantly enhances the bone marrow cell counts | Bone Marrow # Cells (×10^6) (bone marrow cells; [2]): 32 ± 2.71 ×10^6 | Bone Marrow # Cells (×10^6) (bone marrow cells; [10]): 37 ± 7.8 ×10^6 | Bone Marrow # Cells (×10^6) (bone marrow cells; [11]): 38 ± 4.6 ×10^6 | Bone Marrow # Cells (×10^6) (bone marrow cells; [12]): 38 ± 7.4 ×10^6 | effect on spleen cell count, post-treatment (spleen cells; [9]): significant increase in spleen cell count | effect on spleen cell count compared to cyclophosphamide treated mice (spleen cells; CY-treated mice): No significant effect | Spleen # Cells (×10^6) (spleen cells; [2]): 27 ± 8.4 ×10^6 | Spleen # Cells (×10^6) (spleen cells; [10]): 31 ± 8.7 ×10^6 | Spleen # Cells (×10^6) (spleen cells; [11]): 25 ± 6.3 ×10^6 | Spleen # Cells (×10^6) (spleen cells; [12]): 36 ± 7.8 ×10^6 | Blood Immunophenotyping: effect compared to cyclophosphamide alone (words) (blood cell subsets; CY (200 mg/kg) immunosuppressed mice): significantly increase the relative percentage of LY5-TCR- on blood | Blood Immunophenotyping: LY5−TCR− cell subset (relative percentage) (blood cell subsets; Table 14, CY (200 mg/kg) immunosuppressed mice, compound 6.25 μM): 61.52 ± 5.16 | Blood Immunophenotyping: LY5−TCR− cell subset (relative percentage) (blood cell subsets; Table 14, CY (200 mg/kg) immunosuppressed mice, compound 12.5 μM): 70.79 ± 3.95 | Spleen Immunophenotyping: effect compared to cyclophosphamide alone (words) (spleen cell subsets): no significant effect compared to cyclophosphamide alone | Spleen Immunophenotyping: effect compared to cyclophosphamide alone (words) (spleen cell subsets; listed as Capric acid): No significant effect
